From article PMC11568214, “The impact of 9-azaglycophymine and phenylguanidine derivatives on the proliferation of various breast cancer cell lines in vitro and in vivo” (Scientific Reports, 2024) come the findings set out here.

In assay [1] the test system is BT-474. Put plainly: ROS production, DHR staining, flow cytometry. In kind it is cell-based, human. On the set-up: key: ↑: induction; ↓: inhibition; ↔: no effect. As to conditions: BT-474, IC50 for 72 h. The procedure: (§1) The cells were stained with CFSE (1 µM) in PBS containing 0.1% (v/v) FCS for 10 min. Afterwards, cells were washed with PBS, and then seeded with growth medium in 6-well plates. The plates were incubated for 24 h under standard culture conditions. […] Subsequently, the cells were detached using 0.5 mL of 0.05% (v/v) Trypsin–EDTA for 3 min at 37 °C. Then trypsin was deactivated by the addition of FCS-containing growth medium. The cell suspensions were collected, centrifuged for 3 min at 800 rpm, and the cell pellets were resuspended in fresh PBS. Finally, the samples were analyzed by using flow cytometry. For ROS production analyses, the procedure was performed exactly as described above for the cell division experiments, except that the CFSE staining solution was replaced by DHR staining solution resulting in 1 µM of DHR in PBS containing 0.1% (v/v) FCS[34],[35].

Assay [2] has as its system MDA-MB-468. The assay is described as follows: ROS production, DHR staining, flow cytometry. To be noted: MDA-MB-468, IC50 for 72 h. Also noted: key: ↑: induction; ↓: inhibition; ↔: no effect. In kind it is cell-based, human. The procedure: as §1
A general note: Flow cytometry measures light scatter and fluorescence of single cells or particles in a stream.

For assay [3], the system named is HCC1937. Put plainly: ROS production, DHR staining, flow cytometry. In kind it is cell-based, human. On the set-up: key: ↑: induction; ↓: inhibition; ↔: no effect. As to conditions: HCC1937, IC50 for 72 h. As to the method:
as §1

The subject of assay [4] is MCF-7. The assay is described as follows: ROS production, DHR staining, flow cytometry. On the set-up: key: ↑: induction; ↓: inhibition; ↔: no effect. As to conditions: MCF-7, IC50 for 72 h. The assay is classed as cell-based, human. The procedure:
as §1

A further assay relates to 184B5. The assay is described as follows: CV cell viability assay on healthy breast cell line. The assay is classed as cell-based. To be noted: Homo sapiens, 72 h. As to the method:
(§2) The cell lines were cultured in standard growth medium consisting of RPMI1640 medium supplemented with 10% (v/v) FCS, 1% (v/v) penicillin/streptomycin and 1% (v/v) glutamine[25]–[29]. Two additional cell lines were included in the study representing non-tumorigenic (“healthy”) breast cells, namely 184B5 and MCF10A. These cell lines were cultured using an Endopan 3 medium kit in accordance with the manufacturer’s instruction. For passaging and seeding, cells were treated as previously described. In brief, seeding was done in low density with 6 × 10^3 cells/100 µL in 96-well plates, and with 1.5 × 10^5 cells/1 mL in 6-well plates. […]
(§3) For initial testing of the cytotoxic effect of the available glycophymine compounds (Table S2), cells were treated with compound in three concentrations: 1, 10 and 50 µM. […] Subsequently, the cell viability was determined by using the crystal violet (CV) assay. […]
(§4) For CV assays, after 72 h treatment, the treatment medium was discarded from the 96-well plates, and the cells were washed using 50 µL of PBS. […] Finally, the absorbance was measured at 570 nm by using a SpectraMax M5 plate reader (Molecular Devices, California, USA) and at 670 nm as background wavelength. […] Based on that, IC50 values and standard deviations were calculated for each replicate individually.

The test system of another assay is MCF-10A. The description is as above. The assay is classed as cell-based. As to conditions: Homo sapiens, 72 h. The procedure:
as §2, §3, §4

For assay [5], the system named is BT-474. Put plainly: Cell division analysis, CFSE staining, flow cytometry. To be noted: BT-474, IC50 for 72 h. In kind it is cell-based, human. Also noted: key: ↑: induction; ↓: inhibition; ↔: no effect. The procedure: as §1, with “cytometry.” for “cytometry. For ROS production analyses, the procedure was performed exactly as described above for the cell division experiments, except that the CFSE staining solution was replaced by DHR staining solution resulting in 1 µM of DHR in PBS containing 0.1% (v/v) FCS[34],[35].”

The test system of assay [6] is MDA-MB-468. Described as above. In kind it is cell-based, human. On the set-up: key: ↑: induction; ↓: inhibition; ↔: no effect. To be noted: MDA-MB-468, IC50 for 72 h. The procedure:
as §1, with “cytometry.” for “cytometry. For ROS production analyses, the procedure was performed exactly as described above for the cell division experiments, except that the CFSE staining solution was replaced by DHR staining solution resulting in 1 µM of DHR in PBS containing 0.1% (v/v) FCS[34],[35].”

Assay [7] deals with HCC1937. The description is as above. To be noted: HCC1937, IC50 for 72 h. On the set-up: key: ↑: induction; ↓: inhibition; ↔: no effect. The assay is classed as cell-based, human. As to the method: as §1, with “cytometry.” for “cytometry. For ROS production analyses, the procedure was performed exactly as described above for the cell division experiments, except that the CFSE staining solution was replaced by DHR staining solution resulting in 1 µM of DHR in PBS containing 0.1% (v/v) FCS[34],[35].”

Assay [8] deals with MCF-7. The description is as above. The assay is classed as cell-based, human. Also noted: key: ↑: induction; ↓: inhibition; ↔: no effect. To be noted: MCF-7, IC50 for 72 h. The procedure: as §1, with “cytometry.” for “cytometry. For ROS production analyses, the procedure was performed exactly as described above for the cell division experiments, except that the CFSE staining solution was replaced by DHR staining solution resulting in 1 µM of DHR in PBS containing 0.1% (v/v) FCS[34],[35].”

Another assay concerns 4T1. Put plainly: NO production, DAF-FM staining, flow cytometry. As to conditions: 4T1, IC50 for 72 h. Also noted: key: ↑: induction; ↓: inhibition; ↔: no effect. The assay is classed as cell-based, mouse. The procedure: Afterwards, the medium was discarded and the cells were stained with DAF-FM (5 µM) in RPMI1640 with 10% (v/v) FCS for 1 h at 37 °C. The stain was completed by additional incubation for 15 min with serum-free medium. The cells were then detached, re-suspended in PBS and analyzed by flow cytometry.

One may read the IC50 as the concentration that gives 50% inhibition. For `O=c1[nH]c(Nc2ccc([N+](=O)[O-])cc2)nc2ccccc12` [Compound 19, 4′-nitro-9-aza-glycophymine], the ROS result in the assay on BT-474 [1] was “↓”; in the assay on MDA-MB-468 [2], “↔”; with HCC1937 [3] it was “↓”; with MCF-7 [4], “↔”. Also, the IC50 with 184B5 and with MCF-10A was approximately 4 µM in each case. Moreover, the Proliferation entry in the assay with BT-474 [5] is recorded as “↓”; in the assay on MDA-MB-468 [6] it was “↔”; in the assay on HCC1937 [7], “↓”; in the assay with MCF-7 [8] it was “↔”. For the same compound, the NO entry in the assay on 4T1 was “↑”.
